# What was measured:
# Format in all cases: cell-based
# [1] = tested on: Staphylococcus aureus SG 511; experiment: Minimum inhibition concentration (MIC), Table 5; settings: Staphylococcus aureus, SG511, Germ: Staphylococcus aureus SG 511; read-out: Minimum inhibition concentration (MIC)
# Excerpt: (§1) Minimum inhibition concentration (MIC) in γ/ml
# Germ: Staphylococcus aureus SG 511
# Streptococcus D = experiment: Minimum inhibition concentration (MIC), Table 4; settings: Germ: Streptococcus D; for MIC: Streptococcus, read-out: Minimum inhibition concentration (MIC)
# Excerpt: as §1
# [2] = tested on: Staphylococcus aureus 285; experiment: Minimum inhibition concentration (MIC), Table 1; settings: for MIC: Staphylococcus aureus, 285, Germ: Staphylococcus aureus 285, read-out: Minimum inhibition concentration (MIC)
# Excerpt: as §1
# Germ: Staphylococcus aureus 285
# Streptococcus pyogenes A = experiment: Minimum inhibition concentration (MIC), Table 3; settings: Germ: Streptococcus pyogenes A; for MIC: read-out: Minimum inhibition concentration MIC
# Excerpt: Minimum inhibition concentration MIC in γ/ml
# Germ: Streptococcus pyogenes A
# Proteus mirabilis = experiment: Minimum inhibition concentration (MIC), Table 2; parameters: Minimum inhibition concentration (MIC): unit not given here; settings: Germ: Proteus mirabilis; for MIC: read-out: Minimum inhibition concentration (MIC)
# Excerpt: Minimum inhibition concentration (MIC) in /ml
Structure (SMILES),MIC [1] [µg/mL],MIC (Streptococcus D) [µg/mL],MIC [2] [µg/mL],MIC (Streptococcus pyogenes A) [µg/mL],MIC (Proteus mirabilis) [µg/mL],Minimum inhibition concentration (MIC) (Streptococcus D) [µg/mL],Minimum inhibition concentration (MIC) ([2]; Germ: Staphylococcus aureus 285) [µg/mL],Minimum inhibition concentration (MIC) (Streptococcus pyogenes A) [µg/mL],Minimum inhibition concentration (MIC) (Proteus mirabilis)
CCCc1nnc(SCC2=C(C(=O)O)N3C(=O)C(NC(=O)Cc4ccc(C5=NCCN5)cc4)C3SC2)s1 (centres unmarked) [Example 53],0.0625 to 0.078,0.196 to 6.25,0.5 to 1.25,0.000391 to 0.0078,25,–,–,–,–
"CCCCc1nnc(SCC2=C(C(=O)O)N3C(=O)C(NC(=O)Cc4ccc(C(=N)N)cc4)C3SC2)s1 (centres unmarked) [Example 55, 3-[(5-n-butyl-1,3,4-thiadiazole-2-yl)-thiomethyl]-7-(4-amidinophenylacetamido)-Δ 3-cephem-4-carboxylic acid]",0.0625 to 0.078,10 to 50,0.156 to 0.391,0.000391 to 0.0078,25,–,–,–,–
"CCCc1nnc(SCC2=C(C(=O)O)N3C(=O)C(NC(=O)Cc4ccc(C(=N)N)cc4)C3SC2)s1 (centres unmarked) [Example 58, 3-[(5-n-propyl-1,3,4-thiadiazole-2-yl)-thiomethyl]-7-(4-amidinophenylacetamido)-Δ 3-cephem-4-carboxylic acid]",0.0196 to 0.0391,10 to 50,0.156 to 0.391,0.000391 to 0.0078,3.1 to 12.5,–,–,–,–
"Cc1nnc(SCC2=C(C(=O)O)N3C(=O)C(NC(=O)Cc4ccc(C(=N)N)cc4)C3SC2)o1 (centres unmarked) [Example 60, 3-[(5-methyl-1,3,4-oxadiazole-2-yl)-thiomethyl]-7-(4-amidinophenylacetamido)-Δ 3-cephem-4-carboxylic acid]",0.0625 to 0.078,10 to 50,0.5 to 1.25,0.000391 to 0.0078,3.1 to 12.5,–,–,–,–
"O=C(Cc1ccc(C2=NCCN2)cc1)NC1C(=O)N2C(C(=O)O)=C(CSc3nncs3)CSC12 (centres unmarked) [Example 70, 3-[(1,3,4-thiadiazole-2-yl)-thiomethyl]-7-[4-(imidazoline-2-yl)phenylacetamido]-Δ 3-cephem-4-carboxylic acid]",0.0625 to 0.078,0.196 to 6.25,0.156 to 0.391,0.000391 to 0.0078,3.1 to 12.5,–,–,–,–
"Cn1nnnc1SCC1=C(C(=O)O)N2C(=O)C(NC(=O)Cc3ccc(C(=N)N)cc3)C2SC1 (centres unmarked) [Example 89, 3-[(1-methyl-1H-tetrazole-5-yl)-thiomethyl]-7-[4-amidino-phenylacetamido]-Δ 3-cephem-4-carboxylic acid]",–,10 to 50,0.156 to 0.391,0.008 to 0.0156,3.1 to 12.5,–,–,–,–
"O=C(Cc1ccc(C2=NCCCN2)cc1)NC1C(=O)N2C(C(=O)O)=C(CSc3nnc[nH]3)CSC12 (centres unmarked) [Example 94, 3-[(triazole-2-yl)-thiomethyl]-7-[4-(1,4,5,6-tetrahydro-pyrimide-2-yl)-phenylacetamido]-Δ3-cephem-4-carboxylic acid]",–,–,–,–,–,10 to 50,1.6 to 2.5,0.008 to 0.0156,25
"O=C(Cc1ccc(C2=NCCCN2)cc1)NC1C(=O)N2C(C(=O)O)=C(CSc3ccncc3)CSC12 (centres unmarked) [Example 97, 3-(4-pyridyl-thiomethyl)-7-[4-(1,4,5,6-tetrahydropyrimide-2-yl)-phenylacetamido]-Δ3-cephem-4-carboxylic acid]",–,10 to 50,1.6 to 2.5,0.000391 to 0.0078,25,–,–,–,–
"O=C(Cc1ccc(C2=NCCN2)cc1)NC1C(=O)N2C(C(=O)O)=C(CSc3nc4ccccc4s3)CSC12 (centres unmarked) [Example 118, 3-[(benzothiazole-2-yl)-thiomethyl]-7-[4-(imidazoline-2-yl)-phenylacetamido]-Δ3-cephem-4-carboxylic acid]",0.0625 to 0.078,0.196 to 6.25,0.156 to 0.391,0.000391 to 0.0078,25,–,–,–,–
CCc1nnc(SCC2=C(C(=O)O)N3C(=O)C(NC(=O)Cc4ccc(C5=NCCN5)cc4)C3SC2)s1 (centres unmarked) [Example 120],0.0196 to 0.0391,10 to 50,0.156 to 0.391,0.000391 to 0.0078,3.1 to 12.5,–,–,–,–
"CCc1nnc(SCC2=C(C(=O)O)N3C(=O)C(NC(=O)Cc4ccc(C5=NCCCN5)cc4)C3SC2)s1 (centres unmarked) [Example 121, 3-[(5-ethyl-1,3,4-thiadiazole-2-yl)-thiomethyl]-7-[4-(1,4,5,6-tetrahydropyrimide-2-yl)-phenylacetamido]-Δ3-cephem-4-carboxylic acid]",0.0196 to 0.0391,10 to 50,0.156 to 0.391,0.000391 to 0.0078,25,–,–,–,–
"O=C(Cc1ccc(C2=NCCN2)cc1)NC1C(=O)N2C(C(=O)O)=C(CSc3nnco3)CSC12 (centres unmarked) [Example 124, 3-[(1,3,4-oxadiazole-2-yl)-thiomethyl]-7-[4-(imidazoline-2-yl)-phenylacetamido]-Δ 3-cephem-4-carboxylic acid]",–,10 to 50,0.5 to 1.25,0.008 to 0.0156,3.1 to 12.5,–,–,–,–

# Source: patent publication US4016159A, “Acylamino-cephem-carboxylic acids containing an amidino or guanidino group in the molecule” (Hoechst Aktiengesellschaft, priority 1973, dated 1977)
